Measured values reported in patent publication US20190307833A1, “TREATMENT OF AGE-RELATED MACULAR DEGENERATION WITH NEUROTROPHIC PEPTIDERGIC COMPOUND” (The Research Foundation for Mental Hygiene, Inc., priority 2018, published 2019).
*1 amine or outer side, *2 acyl side, *3 side chain or, on linkers, in order; H or OH if unused. Where a SMILES comes first, the peptide text is derived from it. [ ]: non-standard residue; d: D form. X1 = O=C(C1(N[*:1])C2CC3CC(C2)CC1C3)[*:2]

How the values were obtained:
[1] = test system: VEGF; assay: VEGF immunofluorescence in retina and optic nerve of aged 3×Tg-AD mice; assay type: in vivo, mouse
Description: (§1) At approximately 3 months of age, the female wild type and 3×Tg-AD mice were divided into five groups (n=6-7 mice per group) (FIG. 3A): (1) Wild type mice, age 3 months, without treatment (WT-3m); (2) 3×Tg-AD mice, age 3 months, without treatment (3×Tg-3m); (3) Wild type mice, age 3 months, treated with vehicle feed without P021 until the age of 21 months (WT-21m/Veh); (4) 3×Tg-AD-mice, age 3 months, treated with vehicle feed without P021 until the age of 21 months (3×Tg-21m/Veh); and (5) 3×Tg-AD-mice, age 3 months, treated with 60 nmol P021/g feed till the age of 21 months (3×Tg-21m/P021). The first two groups were the starting point and were employed as the matched young controls. P021 was formulated in the feed by Research Diets (New Brunswick, N.J., USA). Food consumption and body weight were recorded every 2 weeks and every month, respectively. The average mouse food consumption was ˜2.7 g feed/day.
(§2) The animals were anesthetized by using an overdose of avertin and then were transcardially perfused by using 0.1 M phosphate-buffered saline (PBS). Eyeballs were dissected out from the carcasses, immersion-fixed for 24 hours in 4% paraformaldehyde at 4° C., and then transferred to 70% alcohol for storage; in the case of mice, the eyeballs were prefixed by injecting 4% paraformaldehyde, followed by removal from the carcasses and immersion fixation as above. After the cornea and lens of the left eyes were removed, the remaining eye cup was embedded in paraffin with the orientation parallel to the optic nerve in longitudinal position. In all cases, 5-μm serial sections were cut by using a rotary microtome and were mounted on Superfrost Plus slides.
(§3) Paraffin sections were deparaffinized, rehydrated, and subjected to antigen retrieval by boiling for 20 minutes in 10 mM sodium citrate solution (pH 6.0). […] The area to be analyzed was selected and converted to grey scale, the threshold (Yen mode) was adjusted, and the area percentage of positive staining was measured for each section by using the NIH Image J software package. […]

[2] = cited from earlier work
[3] = test system: RPE of aged 3×Tg-AD mice; assay: Auto-fluorescence of RPE lipofuscin granules and deposits in aged 3×Tg-AD mice; assay type: in vivo, mouse
Description: as §1, §2
(§4) Paraffin sections were deparaffinized, rehydrated, and covered with coverslips with 0.1M PBS and then photographed by using a confocal microscope with red channel (λex=543, λem=590/50), as described previously. […] For quantification, the number of deposits between RPE and Cho in each section was manually counted by using a 20× or, where necessary, a higher magnification objective.

[4] = Stability in artificial intestinal juice; assay type: in vitro ADME; conditions: simulated intestinal fluid; during 120 minutes; read-out: stable in artificial intestinal juice
Experimental: (§5) P021 is quite stable in artificial gastric juice (˜90% during 30 minutes) and in artificial intestinal juice (˜95% during 120 minutes).

[5] = test system: GFAP; assay: GFAP immunofluorescence (astrogliosis) in retina of aged rats; assay type: in vivo, rat
Experimental: (§6) Female aged (19˜21 months) Fisher rats (n=7) were given P021 per os by gavage (10 ml/kg body weight) once a day for 88 days. The dose of P021 was 500 nanomoles (289.15 microgram)/kg body weight daily. As controls, a second group of aged (19˜21 months) female rats (n=7) and a group of young adult female rats (2-3 months, n=7) were treated identically, but with normal saline (vehicle) only (FIG. 1A). Administration of vehicle and test compound was done at 7-9 AM daily in the pretesting phase.
(§7) The animals were anesthetized by using an overdose of avertin and then were transcardially perfused by using 0.1 M phosphate-buffered saline (PBS). Eyeballs were dissected out from the carcasses, immersion-fixed for 24 hours in 4% paraformaldehyde at 4° C., and then transferred to 70% alcohol for storage; in the case of mice, the eyeballs were prefixed by injecting 4% paraformaldehyde, followed by removal from the carcasses and immersion fixation as above. […]
as §3

[6] = test system: Iba-1; assay: Iba-1 immunofluorescence (microgliosis) in retina of aged rats; assay type: in vivo, rat; conditions: 500 nmoles/kg/day by gavage, 3 months
Experimental: as §6, §2
as §3, with “6.0). Sections were then washed three times in 10 mM PBS for 15 minutes each and incubated in 0.3% Triton X-100 for 30 minutes. The sections were again washed in 10 mM PBS (15 minutes, three times each) and blocked in blocking solution (5% normal goat serum containing 0.1% Triton X-100 and 0.05% Tween 20 in PBS) for 45 minutes.” for “6.0).”

[7] = test system: rat and mouse models of AD; conditions: cited from earlier work
[8] = Stability in artificial gastric juice; assay type: in vitro ADME; conditions: simulated gastric fluid; during 30 minutes; read-out: stable in artificial gastric juice
Experimental: as §5

[9] = test system: retina of aged Fisher rats; assay: Retinal morphology by H & E staining in aged Fisher rats; assay type: in vivo, rat; conditions: 500 nmoles/kg/day by gavage, 3 months
Experimental: as §6, §2
(§8) Every 25th retinal section was deparaffinized and subjected to hematoxylin and eosin (H & E) staining to evaluate the morphology. The H & E staining images were captured with a light microscope using 2×, 40×, and 100× objective lenses. Because there is no significant difference between the ⅕th to the ⅓rd of the retina from the optic nerve head and the most peripheral part, the ⅕^th position of the retina from the optic nerve to the most peripheral part of the retina was chosen as the “central,” and the most peripheral part of the retina as “peripheral.” Rows of the outer nuclear layer (ONL) and the inner nuclear layer (INL) of the retina in each group (every 25th section, 3-5 sections per rat or mouse) were manually counted in three columns per image by using a 40× or, where necessary, a higher magnification objective. The thicknesses of the ONL and INL of the central and peripheral retina in each group (every 25th section from the optic nerve head, 2-3 sections per rat or mouse) were measured and quantified by using the ImageJ/NIH image analysis system.

[10] = test system: Iba-1; assay: Iba-1 immunofluorescence (microgliosis) in retina of aged 3×Tg-AD mice; assay type: in vivo, mouse; conditions: 60 nmoles/g feed from 3 to 21 months of age
Description: as §1, with “feed/day. […]” for “feed/day.”
as §3

[11] = test system: total tau, P-tau, Aβ/APP; assay: Tau, phosphorylated tau and Aβ/APP immunofluorescence in retina and optic nerve of aged 3×Tg-AD mice; assay type: in vivo, mouse
Description: as §1, §2
(§9) Paraffin sections were deparaffinized, rehydrated, and subjected to antigen retrieval by boiling for 20 minutes in 10 mM sodium citrate solution (pH 6.0). Sections were then washed three times in 10 mM PBS for 15 minutes each and incubated in 0.3% Triton X-100 for 30 minutes. The sections were again washed in 10 mM PBS (15 minutes, three times each) and blocked in blocking solution (5% normal goat serum containing 0.1% Triton X-100 and 0.05% Tween 20 in PBS) for 45 minutes. Sections were then incubated overnight at 4° C. with the corresponding primary antibodies (see Table 1 for antibodies used in this study) diluted in the same blocking solution. After being washed three times for 15 minutes each with 10 mM PBS, sections were incubated with Alexa-Fluor 488-conjugated goat anti-mouse or anti-rabbit IgG secondary antibodies (1:1000) in 10 mM PBS with 0.05% Tween 20 for 2 hours at room temperature. Sections were subsequently washed one time and incubated with To-Pro (1:1000) for 15 minutes. After being washed three times for 15 minutes, sections were mounted and cover-slipped by using ProLong Gold anti-fade reagent. The absence of primary antibody control staining was included in each experiment as a negative control. Double immunofluorescence and To-Pro images were captured at equal camera exposure (for each antibody staining) with a Nikon EZ-C1 laser confocal imaging system. The area to be analyzed was selected and converted to grey scale, the threshold (Yen mode) was adjusted, and the area percentage of positive staining was measured for each section by using the NIH Image J software package. The staining area was averaged from 2-3 independent sections of each eye (n=5-7 different animals per group).

[12] = BBB studies through a commercial service (APREDICA)
[13] = chronic oral treatment, aged rats and mice; cited from earlier work
[14] = test system: GFAP; assay: GFAP immunofluorescence (astrogliosis) in retina of aged 3×Tg-AD mice; assay type: in vivo, mouse; conditions: 60 nmoles/g feed from 3 to 21 months of age
Description: as §1, §2, §3

[15] = test system: total tau, P-tau, Aβ/APP; assay: Tau, phosphorylated tau and Aβ/APP immunofluorescence in retina of aged rats; assay type: in vivo, rat
Experimental: as §6, §2, §9

[16] = test system: retina of aged 3×Tg-AD mice; assay: Retinal morphology by H & E staining in aged 3×Tg-AD mice; assay type: in vivo, mouse; conditions: 60 nmoles/g feed from 3 to 21 months of age
Description: as §1, §2, §8

[17] = test system: RPE of aged Fisher rats; assay: Auto-fluorescence of RPE lipofuscin granules and deposits in aged Fisher rats; assay type: in vivo, rat; conditions: 500 nmoles/kg/day by gavage, 3 months
Experimental: as §6, §7, §4

[18] = 3×Tg-AD mice, 60 nmoles/g feed from 3 to 21 months of age
[19] = 60 nmoles/g feed from 3 to 21 months of age, auto-fluorescence

## CC(=O)N[C@@H](CC(=O)O)C(=O)NCC(=O)NCC(=O)N[C@@H](CC(C)C)C(=O)NC1(C(N)=O)C2CC3CC(C2)CC1C3 (stereo partly shown) [P021, Ac-DGGL^AG-NH2] (Ac-DGGL[X1]-NH2)
[1]; [18]
  VEGF staining in the optic nerve: the size of the staining patch was decreased
  localization of VEGF-positive spots in the retina: limited mainly to the GFL to the IPL
[1]; aged mice
  expression of VEGF in retinas: prevents increase in the expression of VEGF
[2]
  oral bioavailability: orally bioavailable
[3]; [19]
  deposits between the RPE and Cho: significantly reduced
  lipofuscin granules in RPE: some small lipofuscin granules could still be observed
[3]; P021 administered in the diet
  RPE and BM abnormalities (AMD features) overall: Most of these AMD features were prevented
[4]
  remaining at 2 h: ~95%
[5]
  area percentage of GFAP-positive staining, central and peripheral retinas: drastically elevated in the central and peripheral retinas in ˜22- to 24-month-old/Veh rats as compared to ˜5- to 6-month-old/Veh rats and ˜22- to 24-month-old/P021 rats
[5]; 500 nmoles/kg/day by gavage, 3 months, vs vehicle aged rats
  GFAP staining: reduced very much
[6]
  relative Iba-1 immunostaining from the NFL to the OS, central and peripheral retinas: dramatically reduced
[6]; especially central retina
  Iba-1 staining from the ONL to the OS: no staining was found from the ONL to the OS
[6]; vs vehicle aged rats
  localization of Iba-1 from the NFL to the OPL: decrease in localization from the NFL to the OPL
[7]
  cognitive impairment, synaptic deficit, neuroinflammation, tau and Aβ pathologies: rescue cognitive impairment, synaptic deficit, neuroinflammation, and tau and Aβ pathologies
[8]
  remaining at 0.5 h: ~90%
[9]
  RPE vacuolization and atrophy: no apparent abnormalities were observed
  arrangement of apical microvilli (AM) in RPE: showed improvement in the arrangement of AM
  decrease in rows and thickness of ONL, central vs peripheral retina: prevented these pathological changes more effectively in the central retina
  outer retinal folds and rosette-like structures in the central retina: No abnormal structure like this was observed
  rows and thickness of INL in the central retina: no detectable effect
  rows and thickness of ONL, P021-treated aged rats vs young rats: no significant difference between ˜5- to 6-month-old rats and P021-treated ˜22- to 24-month-old rats
  rows of INL in the peripheral retina: showed a clear trend to rescue the number of rows
[10]
  Iba-1 immunostaining (area percentage) in the peripheral retina: decreased in 3×Tg-21 m/P021 mice to the levels in WT-3 m/Veh and 3×Tg-3 m/Veh mice
  distribution of Iba-1-positive staining in the central retina: Iba-1-positive staining was only observed in the GCL
[11]; [18]
  tau and Aβ pathologies in the retina: prevented the increase in tau and Aβ pathologies
[11]; retinas of aged mice
  Aβ/APP immunoreactivity: prevents increase of Aβ/APP immunoreactivity
  tau hyperphosphorylation at Ser-202/Thr-205 (AT8 site): prevents increase in the expression of tau hyperphosphorylation at Ser-202/Thr-205
  tau hyperphosphorylation at Ser-396/404 (PHF-1 site): prevents increase in the expression of tau hyperphosphorylation at Ser-396/404
  total tau immunoreactivity (R134d): prevents the increase in total tau immunoreactivity
[12]
  crossing of the BBB: a sufficient amount of P021 crossed the BBB
[13]
  general physical state (side effects): did not reveal any worsening in general physical state
[14]
  area percentage of GFAP from the NFL to the ONL in the central retina: reduced by P021 treatment to the levels in WT-3m/Veh and 3×Tg-3 m/Veh mice
  distribution of GFAP-positive staining: limited to the NFL and GCL
[14]; similar trend
  area percentage of GFAP in the peripheral retina: did not reach statistical significance
[15]; aged rats, 500 nmoles/kg/day by gavage, 3 months
  tau and Aβ pathologies in the retina: prevented the increase in tau and Aβ pathologies
[15]; retinas of aged rats
  Aβ/APP immunoreactivity: prevents increase of Aβ/APP immunoreactivity
  tau hyperphosphorylation at Ser-202/Thr-205 (AT8 site): prevents increase in the expression of tau hyperphosphorylation at Ser-202/Thr-205
  tau hyperphosphorylation at Ser-396/404 (PHF-1 site): prevents increase in the expression of tau hyperphosphorylation at Ser-396/404
  total tau immunoreactivity (R134d): prevents the increase in total tau immunoreactivity
[16]
  decrease in rows and thickness of INL in the central retina: chronic treatment with P021 prevented these changes
  decrease in rows and thickness of ONL in the central retina: prevented
  decrease in rows and thickness of ONL in the peripheral retina: not in the peripheral retina
  extension of ONL nuclei across the OPL into the INL, central retina: this pathology was prevented
  prevention of changes in rows and thickness of INL in the peripheral retina: did not reach significance
  rescue of INL thickness in the central retina: did not reach statistical significance
[17]
  lipofuscin granules and deposition number between RPE and Cho: obviously decreased
